Source: ChEMBL document CHEMBL5512667, “Discovery of Potent, Selective, and Orally Available IRE1α Inhibitors Demonstrating Comparable PD Modulation to IRE1 Knockdown in a Multiple Myeloma Model” (J Med Chem, 2024)
In brackets after ≈: the same amount, converted by molar mass.

Key:
[1] = Apparent permeability across apical to basolateral side in MDCK cells at 10 uM incubated for 3 hrs by LC-MS/MS method; type: ADME, cell-based, Canis lupus familiaris; details: dog
[2] = biological target: T1, Serine/threonine-protein kinase/endoribonuclease IRE1 (Homo sapiens, UniProt O75460); experiment: Inhibition of IRE1alpha RNase activity (unknown origin) using XBP1 as substrate preincubated for 1 hr followed by thapsigargin stimulation for 5 hrs by One-Glo luciferase reagent based luminescence assay
[3] = biological target: T1, Serine/threonine-protein kinase/endoribonuclease IRE1; experiment: Inhibition of IRE1alpha RNase activity (Q470 to L977 residues) (unknown origin) expressed in Sf9 cells using mini-XBP-1 stem-loop RNA as substrate measured every 2 mins interval for 50 mins by FRET assay
[4] = biological target: T1, Serine/threonine-protein kinase/endoribonuclease IRE1; experiment: Inhibition of His-tagged IRE1alpha (G547 to L977 residues) (unknown origin) expressed in Sf9 cells preincubated with anti-His Europium labeled antibody for 1 hr prior to compound addition followed by tracer 236 addition and measured after 1 hr by TR-FRET assay
[5] = Plasma protein binding in mouse incubated for 4 hrs by LC-MS/MS based rapid equilibrium dialysis method; type: ADME, cell-free; details: read-out: PPB (converted)
[6] = Kinetic solubility of compound at pH 7.4; type: physicochemical; details: buffer, read-out: Kinetic_solubility
[7] = Volume of distribution at steady state in CD-1 mouse at 10 mg/kg, po or 1 mg/kg, iv measured upto 24 hrs by LC-MS/MS analysis; type: ADME, organism-based; details: in vivo
[8] = Half-life in CD-1 mouse at 10 mg/kg, po or 1 mg/kg, iv measured upto 24 hrs by LC-MS/MS analysis; type: ADME, organism-based; details: in vivo
[9] = Bioavailability in CD-1 mouse at 10 mg/kg, po or 1 mg/kg, iv measured upto 24 hrs by LC-MS/MS analysis; type: ADME, organism-based; details: in vivo

T1 sequence (O75460 whole entry, the tested form may be a part): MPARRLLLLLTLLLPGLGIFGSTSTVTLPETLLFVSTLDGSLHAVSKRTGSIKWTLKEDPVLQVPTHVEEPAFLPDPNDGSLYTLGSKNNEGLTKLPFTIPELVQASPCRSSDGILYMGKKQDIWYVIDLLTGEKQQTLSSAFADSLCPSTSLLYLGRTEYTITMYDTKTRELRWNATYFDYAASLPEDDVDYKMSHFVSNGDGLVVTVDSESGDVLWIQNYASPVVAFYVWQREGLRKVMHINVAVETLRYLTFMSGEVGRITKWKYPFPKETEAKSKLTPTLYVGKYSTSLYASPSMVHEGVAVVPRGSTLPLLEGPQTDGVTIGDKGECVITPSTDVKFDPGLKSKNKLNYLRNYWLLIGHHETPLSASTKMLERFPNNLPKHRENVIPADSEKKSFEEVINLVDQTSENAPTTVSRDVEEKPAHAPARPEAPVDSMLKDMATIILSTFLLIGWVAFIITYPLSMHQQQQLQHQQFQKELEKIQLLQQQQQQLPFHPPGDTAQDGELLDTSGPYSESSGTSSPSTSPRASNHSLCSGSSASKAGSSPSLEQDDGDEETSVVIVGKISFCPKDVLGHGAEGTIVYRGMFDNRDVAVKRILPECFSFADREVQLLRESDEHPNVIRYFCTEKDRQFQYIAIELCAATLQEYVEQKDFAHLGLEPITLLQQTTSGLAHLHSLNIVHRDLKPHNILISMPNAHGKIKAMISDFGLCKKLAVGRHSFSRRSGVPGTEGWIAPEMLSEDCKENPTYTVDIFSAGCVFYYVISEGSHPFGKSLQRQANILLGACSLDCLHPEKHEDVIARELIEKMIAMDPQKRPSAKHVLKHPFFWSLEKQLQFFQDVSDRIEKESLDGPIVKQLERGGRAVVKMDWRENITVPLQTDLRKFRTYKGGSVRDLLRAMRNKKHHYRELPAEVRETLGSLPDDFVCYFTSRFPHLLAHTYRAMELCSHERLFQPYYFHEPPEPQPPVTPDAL

Row | SMILES | Papp A→B at 3 h, 10 µM [1] [nm/s] | IC50 [2] [µM] | IC50 [3] [µM] | IC50 [4] [µM] | fraction unbound at 4 h [5] | solubility kinetic [6] [µM] | Vdss [7] [L/kg] | half-life [8] [h] | bioavailability [9] [%]
1 | Cc1cc(NS(=O)(=O)Cc2ccccc2)ccc1Oc1ncccc1-c1ccnc(N[C@H]2CCCNC2)n1 |  | 4.4 | 0.17 | 0.029 |  |  |  |  | 
2 | Cc1ccc2c(NS(=O)(=O)c3ccccc3Cl)cccc2c1Oc1ncccc1-c1ccnc(N)n1 |  | 32 | > 10 | > 1 |  |  |  |  | 
3 | Cc1ccc2c(NS(=O)(=O)CCC(F)(F)F)cccc2c1Oc1ncccc1-c1ccnc(N[C@H]2CCCNC2)n1 |  | 0.084 | 0.0087 | 0.0011 |  |  |  |  | 
4 | Cc1cc(NS(=O)(=O)Cc2ccccc2)c(F)cc1Oc1ncccc1-c1ccnc(N[C@H]2CCCNC2)n1 |  | 0.31 | 0.014 | 0.0021 |  |  |  |  | 
5 | Cc1ccc2c(NS(=O)(=O)c3ccccc3Cl)cccc2c1Oc1ncccc1-c1ccnc(N[C@H]2CCCOC2)n1 |  | 26 | > 10 | 0.042 |  |  |  |  | 
6 | Cc1ccc2c(NS(=O)(=O)c3ccccc3Cl)cccc2c1Oc1ncccc1-c1ccnc(Nc2cn[nH]c2)n1 |  | > 50 | > 10 | > 1 |  |  |  |  | 
7 | O=S(=O)(Cc1ccccc1)Nc1c(F)cc(Oc2ncccc2-c2ccnc(N[C@H]3CCCNC3)n2)c(F)c1F | 14 | 0.047 | 0.0045 | 0.0031 |  |  |  |  | 
8 | Cc1cc(NS(=O)(=O)c2ccccc2Cl)c2ccccc2c1Oc1ncccc1-c1ccnc(N[C@H]2CC[C@H](N)CC2)n1 |  |  |  | 0.00085 |  |  |  |  | 
9 | Cc1ccc(CNC(=O)N2CCC[C@]3(CCN(Cc4ccc(Cl)c(Cl)c4)C3)C2)cc1 |  | 5.9 | 0.046 | 0.66 |  |  |  |  | 

Second part, the compound after the results:

Row | Papp A→B at 3 h, 10 µM [1] [nm/s] | IC50 [2] [µM] | IC50 [3] [µM] | IC50 [4] [µM] | fraction unbound at 4 h [5] | solubility kinetic [6] [µM] | Vdss [7] [L/kg] | half-life [8] [h] | bioavailability [9] [%] | SMILES
10 | 26 | 0.032 | 0.0052 | 0.00026 | 0.029 | 28 (≈ 16.9 µg/mL) | 3.51 | 0.75 | 36 | O=S(=O)(Cc1ccccc1)Nc1c(F)cc(Oc2ncccc2-c2ccnc(N[C@@H]3CNC[C@H](CF)C3)n2)c(F)c1F
11 |  | 0.18 | 0.2 | 0.036 |  |  |  |  |  | CC(C)(C)c1nc(-c2ccc(NC(=O)Nc3cccc(C(F)(F)F)c3)c3ccccc23)c2c(N)nccn12
12 | 73 | 0.022 | 0.0074 | 0.00059 | 0.009 | 46 (≈ 27.7 µg/mL) | 1.04 | 1.56 | 109 | C[C@@]1(F)CNC[C@@H](Nc2nccc(-c3cccnc3Oc3cc(F)c(NS(=O)(=O)Cc4ccccc4)c(F)c3F)n2)C1
13 |  | 0.3 | 0.019 | 0.0018 |  |  |  |  |  | Cc1ccc2c(NS(=O)(=O)CCC3CC3)cccc2c1Oc1ncccc1-c1ccnc(N[C@H]2CCCNC2)n1
14 |  | 0.035 | 0.0021 | 0.00039 |  |  |  |  |  | Cc1ccc2c(NS(=O)(=O)CCC(F)(F)F)c(F)ccc2c1Oc1ncccc1-c1ccnc(N[C@H]2CCCNC2)n1
15 |  | 0.2 | 0.017 | 0.0022 |  |  |  |  |  | Cc1ccc2c(NS(=O)(=O)C3CCCCC3)cccc2c1Oc1ncccc1-c1ccnc(N[C@H]2CCCNC2)n1
16 |  | 28 | > 10 | > 1 |  |  |  |  |  | Cc1ccc2c(NS(=O)(=O)c3ccccc3Cl)cccc2c1Oc1ncccc1-c1ccnc(N[C@H]2CCCN(CC(F)(F)F)C2)n1
